Assay type in all cases: cell-based
Experiment [1] deals with T1, GDF-11 (Homo sapiens, UniProt O95390).
T1 construct: purchased R&D systems 1958-GD-G8/CF
T1 sequence (O95390 299-407): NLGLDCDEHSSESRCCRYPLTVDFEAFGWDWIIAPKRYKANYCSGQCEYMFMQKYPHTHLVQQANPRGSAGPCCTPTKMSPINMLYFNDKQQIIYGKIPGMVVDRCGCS
Nature of the experiment: Reporter gene assay for myostatin signaling in HepG2 cell line, Evaluation Procedure (1), GDF-11 inhibition. The conditions noted are these: read-out: IC50 (Luciferase) GDF-11 HepG2. The method, boiled down: (§1)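 HepG2 cells transfected with pGL3(CAGA)12-luciferase reporter, serum-starved in 0.1% BSA medium, then stimulated with myostatin or GDF-11 plus 4-fold peptide dilutions (0.006–100 nmol/L for myostatin, 0.12–2000 nmol/L for GDF-11) for 20–24 h at 37 °C. Luminescence read with One-Glo; IC50 calculated.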

The target of experiment [2] is T2, Myostatin (Homo sapiens, UniProt O14793).
T2 construct: active myostatin (also called mature myostatin) is a homodimer consisting of two C-terminal growth factor domains; purchased R&D systems 788-G8/CF
T2 sequence (O14793 267-375): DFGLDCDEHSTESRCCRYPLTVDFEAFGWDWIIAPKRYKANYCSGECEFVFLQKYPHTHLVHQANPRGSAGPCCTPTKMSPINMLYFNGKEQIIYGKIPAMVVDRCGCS
Nature of the experiment: Reporter gene assay for myostatin signaling in HepG2 cell line, Evaluation Procedure (1), myostatin inhibition. The conditions noted are these: read-out: IC50 (Luciferase) Myostatin HepG2. A digest of the protocol:
as §1

Experiment [3] concerns Myostatin. The experiment is described as above. As to conditions: GDF-11 IC50 versus Myostatin IC50. A digest of the protocol: as §1

The results in this text go back to patent EP4786487A1, “PEPTIDE” (Peptidream Inc, priority 2023, dated 2025).

Read-outs that look alike come from different tables or passages of the source. Starred links: 1 amine or outer side, 2 acyl side, 3 side chain; linkers in the order of their positions; H or OH if unused. Positions of bridges follow the written chain, without caps; N, C: chain ends. Non-standard residues stand in square brackets, D forms with d. Residues, ends and D or L forms follow the SMILES beside them. Groups on a side chain read outwards from the residue. *: point of attachment. X13 = O=C(O)c1ccc(-n2cc(C[C@H](N[*:1])C(=O)[*:2])c3ccccc32)cc1; X6 = CS(=O)(=O)c1ccc(-c2ccc(C[C@H](N[*:1])C(=O)[*:2])cc2)cc1; Phe(3-OCH2COOH) = N[C@@H](Cc1cccc(OCC(=O)O)c1)C(=O)O; Trp(6-OH) = N[C@@H](Cc1c[nH]c2cc(O)ccc12)C(=O)O; Phe(4-COOH) = N[C@@H](Cc1ccc(C(=O)O)cc1)C(=O)O; Trp(7-aza) = N[C@@H](Cc1c[nH]c2ncccc12)C(=O)O; Piperazinyl(4-CH2COOH) = O=C(O)CN1CCN(*)CC1; Gly(decyl) = CCCCCCCCCC[C@H](N)C(=O)O; Gly(N(CH2)3COOH) = O=C(O)CCCNCC(=O)O; X1 = CCCCCCC[C@H](N[*:1])C(=O)[*:2]; NMeCha = CN[C@@H](CC1CCCCC1)C(=O)O; NMeF = CN[C@@H](Cc1ccccc1)C(=O)O; NMeE = CN[C@@H](CCC(=O)O)C(=O)O; Carboxymethyl = O=C(O)C*; NMeA = CN[C@@H](C)C(=O)O; CO = O=C([*:1])[*:2]; NEtG = CCNCC(=O)O; Sar = CNCC(=O)O

Usually IC50 stands for the point on the concentration scale where inhibition reaches its midpoint. With `CCCCCCC[C@@H]1NC(=O)[C@H](Cc2ccccc2)N(C)C(=O)[C@H](CCCNC(=N)N)NC(=O)[C@H](Cc2ccc(C(=O)O)cc2)NC(=O)[C@H](Cc2ccc(O)cc2)NC(=O)CN(C)C(=O)[C@H]([C@@H](C)CC)NC(=O)[C@H](Cc2ccccc2)N(C)C(=O)[C@H](Cc2ccc(O)cc2)NC(=O)[C@H](Cc2c[nH]c3ccccc23)NC(=O)[C@H](C)NC(=O)CN(CCCC(=O)O)C(=O)CSC[C@H](C(=O)O)NC(=O)[C@H](Cc2ccccc2)N(C)C(=O)[C@H](C)N(C)C1=O` [Myostatin_99_v167] ({CH2CO}-[Gly(N(CH2)3COOH)]AWY[NMeF]I[Sar]Y[Phe(4-COOH)]R[NMeF][X1][NMeA][NMeF][dC]-OH; thioether N-15), the IC50 in experiment [1] (Method A: GDF-11 10 ng/mL) amounted to 214 nM; in experiment [2] (Method A: Myostatin 10 ng/mL), 4.5 nM. The compound further gave a Selectivity in experiment [3] (Method A) of 48.
Regarding `CCCCCCCCCC[C@@H]1NC(=O)[C@H](Cc2ccccc2)N(C)C(=O)[C@H](CCCNC(=N)N)NC(=O)[C@H](Cc2ccc(C(=O)O)cc2)NC(=O)[C@H](Cc2cccc(OCC(=O)O)c2)NC(=O)CN(CC)C(=O)[C@H]([C@@H](C)CC)NC(=O)[C@H](Cc2ccccc2)N(C)C(=O)[C@H](Cc2ccc(O)cc2)NC(=O)[C@H](Cc2c[nH]c3cc(O)ccc23)NC(=O)[C@H](C)NC(=O)[C@H](C)NC(=O)CSC[C@H](C(=O)N2CCN(CC(=O)O)CC2)NC(=O)[C@H](Cc2ccccc2)N(C)C(=O)[C@H](CCC(=O)O)N(C)C1=O` [Myostatin_99_v385] ({CH2CO}-AA[Trp(6-OH)]Y[NMeF]I[NEtG][Phe(3-OCH2COOH)][Phe(4-COOH)]R[NMeF][Gly(decyl)][NMeE][NMeF][dC]-{Piperazinyl(4-CH2COOH)}; thioether N-15), the values for the IC50 in experiment [1] (Method D: GDF-11 1.5 ng/mL) and in experiment [2] (Method D: Myostatin 1.5 ng/mL) were 42.5 nM and 0.17 nM, respectively. Besides, the Selectivity in experiment [3] (Method D) is reported as 251.449.
For the compound `CCCCCCCCCC[C@@H]1NC(=O)[C@H](Cc2ccccc2)N(C)C(=O)[C@H](CCCNC(=N)N)NC(=O)[C@H](Cc2ccc(C(=O)O)cc2)NC(=O)[C@H](Cc2cccc(OCC(=O)O)c2)NC(=O)[C@H]2CCCN2C(=O)[C@H]([C@@H](C)CC)NC(=O)[C@H](Cc2ccccc2)N(C)C(=O)[C@H](Cc2ccc(O)cc2)NC(=O)[C@H](Cc2ccc(-c3ccc(S(C)(=O)=O)cc3)cc2)NC(=O)[C@H](C)NC(=O)[C@H](C)NC(=O)CSC[C@H](C(=O)N2CCN(CC(=O)O)CC2)NC(=O)[C@H](Cc2ccccc2)N(C)C(=O)[C@H](CCC(=O)O)N(C)C1=O` [Myostatin_99_v343] ({CH2CO}-AA[X6]Y[NMeF]I[dP][Phe(3-OCH2COOH)][Phe(4-COOH)]R[NMeF][Gly(decyl)][NMeE][NMeF][dC]-{Piperazinyl(4-CH2COOH)}; thioether N-15), the IC50 is 14.3 nM in experiment [1] (Method C: GDF-11 1 ng/mL) and 0.1 nM in experiment [2] (Method C: Myostatin 1.5 ng/mL). Moreover, in experiment [3] (Method C), the Selectivity was 137.1.
With `CCCCCCC[C@@H]1NC(=O)[C@H](Cc2ccccc2)N(C)C(=O)[C@H](CCCNC(=N)N)NC(=O)[C@H](Cc2ccc(C(=O)O)cc2)NC(=O)[C@H](Cc2cccc(OCC(=O)O)c2)NC(=O)[C@H](C)N(C)C(=O)[C@H]([C@@H](C)CC)NC(=O)[C@H](Cc2ccccc2)N(C)C(=O)[C@H](Cc2ccc(O)cc2)NC(=O)[C@H](Cc2c[nH]c3ncccc23)NC(=O)[C@H](CO)NC(=O)CN(CCCC(=O)O)C(=O)CSC[C@H](C(=O)O)NC(=O)[C@H](Cc2ccccc2)N(C)C(=O)[C@H](C)N(C)C1=O` [Myostatin_99_v164] ({CH2CO}-[Gly(N(CH2)3COOH)]S[Trp(7-aza)]Y[NMeF]I[NMeA][Phe(3-OCH2COOH)][Phe(4-COOH)]R[NMeF][X1][NMeA][NMeF][dC]-OH; thioether N-15), the IC50 in experiment [1] (Method A: GDF-11 10 ng/mL) stood at 1340 nM; in experiment [2] (Method A: Myostatin 10 ng/mL) it was 4.2 nM. The same compound returned a Selectivity in experiment [3] (Method A) of 320.
Taken in the same sequence, the figures for `CCCCCCC[C@@H]1NC(=O)[C@H](CC2CCCCC2)N(C)C(=O)[C@H](CCCNC(=N)N)NC(=O)[C@H](Cc2ccc(C(=O)O)cc2)NC(=O)[C@H](CCCCNC(=O)N2CCN(CC(=O)O)CC2)NC(=O)[C@H]2CCCN2C(=O)[C@H]([C@@H](C)CC)NC(=O)[C@H](CC2CCCCC2)N(C)C(=O)[C@H](Cc2ccc(O)cc2)NC(=O)[C@H](Cc2c[nH]c3ccccc23)NC(=O)[C@@H](CCC(=O)O)NC(=O)[C@H](C)NC(=O)CSC[C@H](C(=O)N2CCN(CC(=O)O)CC2)NC(=O)[C@H](Cc2ccccc2)N(C)C(=O)[C@H](C)N(C)C1=O` [Myostatin_99_v248] ({CH2CO}-A[dE]WY[NMeCha]I[dP]K([CO-Piperazinyl(4-CH2COOH)])[Phe(4-COOH)]R[NMeCha][X1][NMeA][NMeF][dC]-{Piperazinyl(4-CH2COOH)}; thioether N-15) were 3530 nM, 21.5 nM and 164.
As to `CCCCCCC[C@@H]1NC(=O)[C@H](Cc2ccccc2)N(C)C(=O)[C@H](CCCNC(=N)N)NC(=O)[C@H](Cc2ccc(C(=O)O)cc2)NC(=O)[C@H](Cc2cccc(OCC(=O)O)c2)NC(=O)[C@H](C)N(C)C(=O)[C@H]([C@@H](C)CC)NC(=O)[C@H](Cc2ccccc2)N(C)C(=O)[C@H](Cc2ccc(O)cc2)NC(=O)[C@H](Cc2c[nH]c3ccccc23)NC(=O)[C@H](C)NC(=O)CN(CCCC(=O)O)C(=O)CSC[C@H](C(N)=O)NC(=O)[C@H](Cc2ccccc2)N(C)C(=O)[C@H](C)N(C)C1=O` [Myostatin_99_v196] ({CH2CO}-[Gly(N(CH2)3COOH)]AWY[NMeF]I[NMeA][Phe(3-OCH2COOH)][Phe(4-COOH)]R[NMeF][X1][NMeA][NMeF][dC]-NH2; thioether N-15), the concentration for half-maximal inhibition (IC50) in experiment [1] (Method A: GDF-11 10 ng/mL) was 603 nM; in experiment [2] (Method A: Myostatin 10 ng/mL) it was 3.4 nM. The Selectivity in experiment [3] (Method A) worked out at 177.
For `CCCCCCC[C@@H]1NC(=O)[C@H](Cc2ccccc2)N(C)C(=O)[C@H](CCCNC(=N)N)NC(=O)[C@H](Cc2ccc(C(=O)O)cc2)NC(=O)[C@H](Cc2cccc(OCC(=O)O)c2)NC(=O)[C@H](C)N(C)C(=O)[C@H]([C@@H](C)CC)NC(=O)[C@H](Cc2ccccc2)N(C)C(=O)[C@H](Cc2ccc(O)cc2)NC(=O)[C@H](Cc2cn(-c3ccc(C(=O)O)cc3)c3ccccc23)NC(=O)[C@H](C)NC(=O)CN(CCCC(=O)O)C(=O)CSC[C@H](C(=O)O)NC(=O)[C@H](Cc2ccccc2)N(C)C(=O)[C@H](C)N(C)C1=O` [Myostatin_99_v372] ({CH2CO}-[Gly(N(CH2)3COOH)]A[X13]Y[NMeF]I[NMeA][Phe(3-OCH2COOH)][Phe(4-COOH)]R[NMeF][X1][NMeA][NMeF][dC]-OH; thioether N-15), the IC50 came to 7.08 nM in experiment [1] (Method D: GDF-11 1.5 ng/mL) and 0.09 nM in experiment [2] (Method D: Myostatin 1.5 ng/mL). In experiment [3] (Method D), this compound registered a Selectivity of 76.611.
On to `CC[C@H](C)[C@@H]1NC(=O)[C@H](Cc2ccccc2)N(C)C(=O)[C@H](Cc2ccc(O)cc2)NC(=O)[C@H](Cc2c[nH]c3ncccc23)NC(=O)[C@H](C)NC(=O)CN(CCCC(=O)O)C(=O)CSC[C@H](C(=O)O)NC(=O)[C@H](Cc2ccccc2)N(C)C(=O)[C@H](C)N(C)C(=O)[C@H](CC(C)C)NC(=O)[C@H](Cc2ccccc2)N(C)C(=O)[C@H](CCCNC(=N)N)NC(=O)[C@H](Cc2ccc(OCC(=O)O)cc2)NC(=O)[C@H](Cc2ccccc2)NC(=O)CN(C)C1=O` [Myostatin_99_v43] ({CH2CO}-[Gly(N(CH2)3COOH)]A[Trp(7-aza)]Y[NMeF]I[Sar]FY(Carboxymethyl)R[NMeF]L[NMeA][NMeF][dC]-OH; thioether N-15), for which the values for the IC50 in experiment [1] (Method A: GDF-11 10 ng/mL) and in experiment [2] (Method A: Myostatin 10 ng/mL) were 1990 nM and 33.2 nM, respectively. The Selectivity in experiment [3] (Method A) is 60.
